Measured values as given in ChEMBL document CHEMBL1201862, “PubChem BioAssay data set” (2004).
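How tested: cells in 96-well plates exposed to compound for 48 hours at five concentrations. The concentration for 50% growth inhibition is given as GI50.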 Calls of active or inactive are those of the source. No stated cut-off is given here; in the data, active = GI50 up to about 1.1 µM and inactive = higher.

Columns and labels:
Assay in all cases: growth of human tumour cells (NCI), 48 h
[1] = tested on: A498
[2] = tested on: A549
[3] = tested on: ACHN
[4] = tested on: CAKI-1
[5] = tested on: CCRF-CEM
[6] = tested on: COLO 205
[7] = tested on: DU-145
[8] = tested on: EKVX
[9] = tested on: HCC 2998
[10] = tested on: HCT-15
[11] = tested on: HL-60
[12] = tested on: HOP-92
[13] = tested on: HT-29
[14] = tested on: Hs-578T
[15] = tested on: IGROV-1
[16] = tested on: K562
[17] = tested on: KM12
[18] = tested on: LOX IMVI
[19] = tested on: MCF7
[20] = tested on: MDA-MB-231
[21] = tested on: MDA-MB-435
[22] = tested on: MOLT-4
[23] = tested on: Malme-3M
[24] = tested on: NCI-H23
[25] = tested on: NCI-H460
[26] = tested on: NCI-H522
[27] = tested on: NCI/ADR-RES
[28] = tested on: OVCAR-4
[29] = tested on: OVCAR-5
[30] = tested on: OVCAR-8
[31] = tested on: PC-3
[32] = tested on: RPMI-8226
[33] = tested on: RXF 393
[34] = tested on: SF-268
[35] = tested on: SF-295
[36] = tested on: SF-539
[37] = tested on: SK-MEL-28
[38] = tested on: SK-MEL-2
[39] = tested on: SK-MEL-5
[40] = tested on: SK-OV-3
[41] = tested on: SN12C
[42] = tested on: SNB-75
[43] = tested on: SR
[44] = tested on: SW-620
[45] = tested on: T47D
[46] = tested on: TK-10
[47] = tested on: U-251
[48] = tested on: UACC-257
[49] = tested on: UACC-62
[50] = tested on: UO-31
[51] = tested on: 786-0
[52] = tested on: HCT-116
[53] = tested on: HOP-62
[54] = tested on: M14
[55] = tested on: MDA-N
[56] = tested on: NCI-H226
[57] = tested on: OVCAR-3
[58] = tested on: SNB-19

CN(Cc1cnc2nc(N)nc(N)c2n1)c1ccc(C(=O)NC(CCC(=O)O)C(=O)O)cc1C(F)(F)F (stereo not drawn)
GI50 [1]: < 0.01 µM (active)
GI50 [2]: < 0.01 µM (active)
GI50 [3]: < 0.01 µM (active)
GI50 [4]: < 0.01 µM (active)
GI50 [5]: < 0.01 µM (active)
GI50 [6]: < 0.01 µM (active)
GI50 [7]: < 0.01 µM (active)
GI50 [8]: > 27 µM (inactive)
GI50 [9]: < 0.01 µM (active)
GI50 [10]: < 0.01 µM
GI50 [11]: < 0.01 µM (active)
GI50 [12]: > 100 µM (inactive)
GI50 [13]: < 0.01 µM (active)
GI50 [14]: > 72.9 µM (inactive)
GI50 [15]: < 0.01 µM (active)
GI50 [16]: < 0.01 µM (active)
GI50 [17]: < 0.01 µM (active)
GI50 [18]: < 0.01 µM (active)
GI50 [19]: < 0.01 µM (active)
GI50 [20]: > 23.1 µM (inactive)
GI50 [21]: < 0.01 µM (active)
GI50 [22]: < 0.01 µM (active)
GI50 [23]: > 100 µM (inactive)
GI50 [24]: < 0.01 µM (active)
GI50 [25]: < 0.01 µM (active)
GI50 [26]: < 0.01 µM (active)
GI50 [27]: < 0.01 µM (active)
GI50 [28]: > 100 µM (inactive)
GI50 [29]: < 0.01 µM (active)
GI50 [30]: < 0.01 µM (active)
GI50 [31]: < 0.01 µM (active)
GI50 [32]: < 0.01 µM (active)
GI50 [33]: > 100 µM (inactive)
GI50 [34]: < 0.01 µM (active)
GI50 [35]: < 0.01 µM (active)
GI50 [36]: < 0.01 µM (active)
GI50 [37]: > 100 µM (inactive)
GI50 [38]: > 100 µM (inactive)
GI50 [39]: < 0.01 µM (active)
GI50 [40]: > 100 µM (inactive)
GI50 [41]: < 0.01 µM (active)
GI50 [42]: > 100 µM (inactive)
GI50 [43]: < 0.01 µM (active)
GI50 [44]: < 0.01 µM (active)
GI50 [45]: > 100 µM (inactive)
GI50 [46]: > 78.3 µM (inactive)
GI50 [47]: < 0.01 µM (active)
GI50 [48]: 25.8 µM (inactive)
GI50 [49]: < 0.01 µM (active)
GI50 [50]: < 0.01 µM (active)

CC(=O)c1ccc(NCc2cc(O)ccc2O)cc1
GI50 [51]: 13.3 µM (inactive)
GI50 [1]: 36.1 µM (inactive)
GI50 [3]: 18.5 µM (inactive)
GI50 [4]: 17.9 µM (inactive)
GI50 [5]: 8.55 µM (inactive)
GI50 [6]: 11.8 µM (inactive)
GI50 [7]: 23 µM (inactive)
GI50 [8]: 30 µM (inactive)
GI50 [52]: 17.4 µM (inactive)
GI50 [10]: 24.9 µM
GI50 [11]: 3.53 µM (inactive)
GI50 [53]: 20.6 µM (inactive)
GI50 [12]: 17.9 µM (inactive)
GI50 [13]: 32.1 µM (inactive)
GI50 [14]: 29.4 µM (inactive)
GI50 [15]: > 100 µM (inactive)
GI50 [16]: 32.2 µM (inactive)
GI50 [17]: 14.2 µM (inactive)
GI50 [18]: 24.8 µM (inactive)
GI50 [54]: 19.1 µM (inactive)
GI50 [19]: 21.7 µM (inactive)
GI50 [20]: 21.8 µM (inactive)
GI50 [21]: 21.1 µM (inactive)
GI50 [55]: 20.4 µM (inactive)
GI50 [22]: 3.85 µM (inactive)
GI50 [56]: 34.7 µM (inactive)
GI50 [24]: 22.5 µM (inactive)
GI50 [25]: 23.1 µM (inactive)
GI50 [26]: 31.3 µM (inactive)
GI50 [27]: 36.5 µM (inactive)
GI50 [57]: 7.06 µM (inactive)
GI50 [28]: 18.5 µM (inactive)
GI50 [29]: 21.3 µM (inactive)
GI50 [30]: 23.8 µM (inactive)
GI50 [31]: 15.2 µM (inactive)
GI50 [32]: 5.38 µM (inactive)
GI50 [33]: 14 µM (inactive)
GI50 [35]: 17.8 µM (inactive)
GI50 [36]: 14.5 µM (inactive)
GI50 [37]: 40.3 µM (inactive)
GI50 [38]: 20.4 µM (inactive)
GI50 [39]: 18.3 µM (inactive)
GI50 [40]: 23 µM (inactive)
GI50 [41]: 25.5 µM (inactive)
GI50 [58]: 38.8 µM (inactive)
GI50 [42]: 13.7 µM (inactive)
GI50 [44]: 36.7 µM (inactive)
GI50 [45]: 14.3 µM (inactive)
GI50 [46]: 15.3 µM (inactive)
GI50 [47]: 21.8 µM (inactive)
GI50 [48]: 17.5 µM (inactive)
GI50 [49]: 15.3 µM (inactive)
GI50 [50]: 11.4 µM (inactive)
